Read-outs that look alike come from different tables or passages of the source.
How the values were obtained:
bloodstream T. brucei = test: Trypanosome proliferation inhibition assay (GI50); format: cell-based, Trypanosoma brucei brucei; details: for Selectivity Index HL GI50/Tbb GI50: ratio between HeLa and T. brucei GI50
Procedure: T. brucei (brucei or rhodesiense) were seeded at 4 × 10^3 cells/mL in 24-well plates (0.5 or 1 mL of culture per well). […] Then, at least five drug concentrations[26] covering this range was used for subsequent assays. Each concentration was tested in duplicate. […] Cells were counted only if they were motile. […] Final mean GI50 values were calculated based on two independent experiments, each with at least five data points performed in duplicate. T. brucei were seeded at 4 × 10^3 cells/mL and dispensed into wells of a 384-well black plate (Greiner; Frickenhausen, Germany). Wells in two columns per plate were filled with 50 μL of HMI-9 medium using a Multidrop Combi (Thermo Scientific; Waltham, MA) to serve as a background control. Fifty microliters of trypanosome suspension was added to separate columns using a Multidrop Combi. Lastly, an additional 50 μL of cell resuspension was added to only the top row of wells that contained cells (row A, labeled by Greiner), using an Xplorer multichannel pipette (Eppendorf; Hamburg-Eppendorf, Germany) bringing final volumes of cell-containing wells in the top row to 100 μL. […] St. Louis, MO). A microliter of DMSO (25%) or diluted drug was added to wells containing cells of the top row using an Xplorer multichannel pipette. Each concentration was tested in duplicate. Cells and DMSO/drug were mixed and serially diluted 1:2 down the rows of the plate. […] Cells were lysed by addition of 15 μL of SYBR Green I (Invitrogen; Carlsbad, CA) in lysis solution[30] (5X SYBR Green I, 30 mM Tris pH 7.5, 7.5 mM EDTA, 0.012% saponin and 0.12% Triton X-100) to each well. […] Data collected was exported to Excel from Ascent Software (Thermo Scientific). Base-line corrected non-linear regression graphs were generated and GI50 values determined using GraphPad Prism (GraphPad Software; La Jolla, CA). Final mean GI50 values were calculated based on four separate biological replicates.

[1] = Normalized body weight of treated T. brucei-infected mice; format: in vivo; details: oral 2 (20 mg/kg) or 3 (25 mg/kg)
Procedure: Formulated compounds or vehicle control (0.2% HPMC) were administered by oral gavage starting 24 h after mouse infection with T. brucei[33][34]. Animals were weighed before each compound administration, and dose volume was adjusted based on body weight (10 mL/kg) to deliver accurate doses of test compounds. The treatment was ceased for animals when normalized body weight (NBW) loss exceeded 20%, and resumed after NBW recovery above 90%. […] 1: 30 mg/kg or 40 mg/kg, treatment regimen of “4 days on/2 days off” for a total of 14 doses; 2: 20 mg/kg (days 2–5), 10 mg/kg (day 7), 5 mg/kg (days 8–9), no drug (day 6, days 10–13); 3: 25 mg/kg (days 2–5), 12.5 mg/kg (day 7), 6.25 mg/kg (days 8–10), no drug (day 6, days 11–13). Scheduled euthanasia by CO2 overdose followed by incision to form a bilateral pneumothorax was conducted on mice considered cured 30 days after the end of experimental treatment (see previous section). Mice with parasitemia greater than 2 × 10^8 trypanosomes/mL or NBW losses ≥30% were subjected to unscheduled euthanasia.

[2] = ref Cleveland BioLabs, unpublished data; cited from earlier work
HeLa cells = test: HeLa cell proliferation inhibition assay (GI50); format: cell-based; details: Homo sapiens; HeLa 1 × 10^5 cells/mL, 24 h with compound; read-out: Growth inhibition (GI50) ± SD HeLa
Procedure: HeLa cells were seeded to 1 × 10^5 cells/mL in 24-well plates (1 mL of culture per well) and incubated drug-free for 24 h at 37 °C, 5% CO2. DMSO or stock inhibitor concentration (5 μL) was added to obtain the specified final concentrations. Cells were incubated for 24 h[28][29] at 37 °C, 5% CO2. Next, cells were trypsinized and cell density was determined with a Neubauer Bright-line hemocytometer as described[9]. GI50 for each compound was calculated by plotting data for the cell counts in Excel as described for T. brucei above. Data were obtained from two independent experiments, four separate biological replicates.

T. brucei [3] = test: Mouse model of HAT: oral treatment of T. brucei-infected mice; format: in vivo, Trypanosoma brucei brucei; details: for survival of infected mice compared to control untreated animals: administered orally; for reduction of parasitemia: day six, after full oral dose days two to five (2: 20 mg/kg, 3: 25 mg/kg); for increase in average survival: infected mice treated orally, versus vehicle (5 days on average); for cure of T. brucei infection in mice: oral administration
Procedure: Cultured T. brucei were pelleted and resuspended in cold phosphate buffered saline (PBS) containing 1% glucose at 1 × 10^5 cells/mL. Female Swiss-Webster mice (8–10 weeks old, 20–25 g, n = 4 per group) (Harlan; Indianapolis, IN) were infected intraperitoneally (i.p.) with 10^4 bloodstream trypanosomes in 100 μL of PBS using 26G needles. To avoid damage to T. brucei cells, mechanical stress during administration was minimized by avoiding repeated pulling and pushing movements of cell resuspension through the syringe needle. Starting 48 h post-infection, and every 1–8 days thereafter, parasitemia was monitored by collecting 3 μL of blood from the tail vein of mice. Blood samples were supplemented with 21 μL of RBC Lysis Solution (Qiagen; Valencia, CA) and incubated at room temperature for 15–45 min. prior to observing for parasites using a Neubauer Bright-line hemocytometer. Mice with parasitemia greater than 2 × 10^8 trypanosomes/mL were euthanized. […] To compare animal survival in treatment and vehicle control groups, Student’s t-test was performed in Excel to generate p-values. All animal experiments were conducted with the approval of the Institutional Animal Care and Use Committee (IACUC) at the University of Georgia. All experimental protocols involving animals were carried out in accordance with the approved guidelines of the IACUC at the University of Georgia.
Formulated compounds or vehicle control (0.2% HPMC) were administered by oral gavage starting 24 h after mouse infection with T. brucei. Animals were weighed before each compound administration, and dose volume was adjusted based on body weight (10 mL/kg) to deliver accurate doses of test compounds. The treatment was ceased for animals when normalized body weight (NBW) loss exceeded 20%, and resumed after NBW recovery above 90%. […] 1: 30 mg/kg or 40 mg/kg, treatment regimen of “4 days on/2 days off” for a total of 14 doses; 2: 20 mg/kg (days 2–5), 10 mg/kg (day 7), 5 mg/kg (days 8–9), no drug (day 6, days 10–13); 3: 25 mg/kg (days 2–5), 12.5 mg/kg (day 7), 6.25 mg/kg (days 8–10), no drug (day 6, days 11–13). Scheduled euthanasia by CO2 overdose followed by incision to form a bilateral pneumothorax was conducted on mice considered cured 30 days after the end of experimental treatment (see previous section). Mice with parasitemia greater than 2 × 10^8 trypanosomes/mL or NBW losses ≥30% were subjected to unscheduled euthanasia.

T. b. rhodesiense = test: Trypanosome proliferation inhibition assay (GI50), T. b. rhodesiense; format: cell-based; details: Trypanosoma brucei, 4 × 10^3 cells/mL, 24-well plates, 48 h, read-out: Growth inhibition (GI50) ± SD T. b. rhodesiense
Procedure: T. brucei (brucei or rhodesiense) were seeded at 4 × 10^3 cells/mL in 24-well plates (0.5 or 1 mL of culture per well). […] Compounds were initially tested at 10 nM, 100 nM or 1 μM, to define a range where cell density responded to drug concentrations. Then, at least five drug concentrations[26] covering this range was used for subsequent assays. Each concentration was tested in duplicate. Cell density was determined with a Neubauer Bright-Line hemocytometer (Sigma) after 48 h. Cells were counted only if they were motile. […] Final mean GI50 values were calculated based on two independent experiments, each with at least five data points performed in duplicate.

T. brucei [4] = test: Thirty-hour treatment of trypanosomes: cell density, kinetoplast/nucleus copy number, DNA content; format: cell-based, Trypanosoma brucei brucei; details: 200 nM
Procedure: At stated times trypanosome density was determined using a Z2 Coulter Counter (Beckman). […] At the same time-points a 5 mL aliquot (5 × 10^5–1 × 10^7 cells total) was collected and analyzed by flow cytometry as described below. All data reported were obtained from three independent experiments.
T. brucei (between 5 × 10^5 cells to 1 × 10^7 cells) in 5 mL of culture medium were centrifuged (3 min, 3000 × g at room temperature) to pellet cells and washed once with 1 mL of PBS containing 10 mM glucose. Cells were fixed in 1 mL of 70% methanol supplemented by PBS at 4 °C for up to two weeks, centrifuged (3 min, 2000 × g at room temperature), and resuspended at 5 × 10^5 cells/mL in 1X PBS. RNase A and propidium iodide (PI) were added to each sample to final concentrations of 500 μg/mL and 7.5 μM, respectively, and the suspension was protected from light during incubation for 1 h at 37 °C[35]. Samples were placed on ice for 15 min and data was immediately collected on a CyAn ADP Analyzer (Beckman Coulter; Hialeah, FL). During analysis with FlowJo software (FlowJo, LLC; Ashland, OR), trypanosomes were gated from background debris by plotting “events” as forward scatter vs. side scatter (both on the logarithmic scale). Single trypanosomes were gated for cell cycle analysis from cells stuck together (“doublets”) by plotting trypanosome events as PI fluorescence vs. pulse width. Distribution of trypanosomes into groups containing different amounts of chromosomal DNA was performed using Watson-Pragmatic algorithm in FlowJo. DNA distribution values from independent experiments were averaged with error bars generated and graphed in Excel. To compare effects of drug treatment on DNA content of experimental and vehicle control groups, Student’s t-test was performed in Excel to generate p-values.

[5] = Trypanosoma brucei, 48 h, T. brucei 4 × 10^3 cells/mL, 48 h, Fig. 1, read-out: GI50
[6] = Trypanosoma brucei, 48 h, 4 × 10^3 cells/mL, 24-well plates, 48 h, Table 1, read-out: Growth inhibition (GI50) ± SD T. b. brucei
[7] = Trypanosoma brucei, against T. brucei, read-out: GI50

With `CCN(CC)CCn1c2ccc3c(c2c2c4c(ccc21)C(=O)CC4)CCC3=O` [CBL0100] the GI50 (bloodstream T. brucei; [5]) was 0.97 ± 0.08 nM.
For `CC(=O)c1cc2c3c4c(ccc3n(CCCN(C)C)c2cc1O)C(=O)N(C)C4` [CBL0167], the GI50 (bloodstream T. brucei; T. brucei 4 × 10^3 cells/mL, 48 h, Fig. 1, read-out: GI50) was 21 ± 2.9 nM and the GI50 (bloodstream T. brucei; [5]) was < 25 nM.
For `CC(=O)c1ccc2c(c1)c1c3c(ccc1n2CC[C@H]1CCCN1C)C(=O)CC3` [CBL0212], the GI50 (bloodstream T. brucei; [5]) was 8.2 ± 0.23 nM.
For `CCCNCCCn1c2ccc3c(c2c2c4c(ccc21)C(=O)CC4)CCC3=O` [Compound 3], the “weight loss of normal body weight (NBW)” value [1] is listed as “exceeding 10%”, the oral bioavailability [2] is listed as “orally bioavailable” and the GI50 (HeLa cells) is listed as 520 ± 40 nM. For the same compound, the “survival of infected mice compared to control untreated animals” value (T. brucei [3]) was “increased survival”, the reduction of parasitemia (T. brucei [3]) was 100 fold and the “increase in average survival” value (T. brucei [3]) was 2 fold. For the same compound, the “cure of T. brucei infection in mice” value (T. brucei [3]) was “failed to cure”, the GI50 (T. b. rhodesiense) was 3.6 ± 0.3 nM and the GI50 (bloodstream T. brucei; [6]) was 2.2 ± 0.1 nM. The GI50 (bloodstream T. brucei; [5]) was < 10 nM and the “Selectivity Index HL GI50/Tbb GI50” value (bloodstream T. brucei) was 236.
`CCN(CC)CCCC(C)n1c2ccc3c(c2c2c4c(ccc21)C(=O)CC4)CCC3=O` (stereo not shown) [CBL0100Q] showed a GI50 (bloodstream T. brucei; [5]) of 240 ± 2 nM.
Work on `CCOC(=O)N1CCC(n2c3ccc(C(C)=O)cc3c3cc(C(C)=O)ccc32)CC1` [CBL0149] yielded a GI50 (bloodstream T. brucei; [5]) of 5300 ± 1500 nM.
`CCN(CC)CCn1c2ccc(C(C)=O)cc2c2cc(C(C)=O)ccc21` [CBL0014] showed a GI50 (bloodstream T. brucei; [5]) of 76 ± 20 nM.
`CC(=O)c1ccc2c(c1)c1cc(C(C)=O)ccc1n2CCCN(C)C` [CBL0031] gave a GI50 (bloodstream T. brucei; [5]) of 260 ± 0.64 nM.
For `CN(C)CCCn1c2ccccc2c2cnccc21` [CBL0144], the GI50 (bloodstream T. brucei; [7]) was > 10000 nM.
`CCN(CC)CCn1c2ccc(C3=NCCN3)cc2c2cc(C3=NCCN3)ccc21` [CBL0030] showed a GI50 (bloodstream T. brucei; [5]) of 1500 ± 210 nM.
For `CC(=O)c1cc2c3c4c(ccc3n(CCCN(C)C)c2cc1O)C(=O)CC4` [Compound 2], the “weight loss of normal body weight (NBW)” value [1] is given as “exceeding 10%”, the oral bioavailability [2] is given as “orally bioavailable” and the GI50 (HeLa cells) is given as 580 ± 100 nM. For the same compound, the “survival of infected mice compared to control untreated animals” value (T. brucei [3]) was “increased survival”, the reduction of parasitemia (T. brucei [3]) was 100 fold and the “increase in average survival” value (T. brucei [3]) was 2 fold. The “cure of T. brucei infection in mice” value (T. brucei [3]) was “failed to cure”, the GI50 (T. b. rhodesiense) was 13 ± 3 nM and the GI50 (bloodstream T. brucei; [6]) was 7.4 ± 0.2 nM. The GI50 (bloodstream T. brucei; [5]) was < 10 nM and the “Selectivity Index HL GI50/Tbb GI50” value (bloodstream T. brucei) was 78.
For `CC(=O)c1ccc2c(c1)c1c3c(ccc1n2CC[C@@H]1CCCN1C)C(=O)CC3` [CBL0211], the GI50 (bloodstream T. brucei; [5]) was 2.3 ± 0.58 nM.
In the case of `CN(C)CCCn1c2ccc3c(c2c2c4c(ccc21)C(=O)CC4)CCC3=O` [CBL0253], the GI50 (bloodstream T. brucei; [5]) is reported as 0.74 ± 0.27 nM.
Work on `CCNCCCn1c2ccc3c(c2c2c4c(ccc21)C(=O)CC4)CCC3=O` [CBL0198] yielded a GI50 (bloodstream T. brucei; [5]) of 2.8 ± 0.49 nM.
For `CC(=O)c1ccc2c(c1)c1cc(C(C)=O)ccc1n2CCC1CCCN1C` (stereo not shown) [CBL0053], the GI50 (bloodstream T. brucei; [5]) was 58 ± 5.3 nM.
Work on `CC(=O)c1cc2c3cc(C(C)=O)c(O)cc3n(CCCN(C)C)c2cc1O` [CBL0174] yielded a GI50 (bloodstream T. brucei; [5]) of 25 ± 1.9 nM.
With `CCCNCCCn1c2ccc(C(C)=O)cc2c2c3c(ccc21)C(=O)CC3` [CBL0175] the GI50 (bloodstream T. brucei; [5]) was 9.5 ± 1.4 nM.
In the case of `CC[n+]1c(-c2ccccc2)c2cc(N)ccc2c2ccc(N)cc21` [ethidium bromide], the “formation of dyskinetoplastic trypanosomes (0K1N)” value (T. brucei [4]; 30 h time-course) is reported as “produced dyskinetoplastic trypanosomes”, the “effect on nuclear DNA content compared to vehicle” value (T. brucei [4]; 30 h treatment, flow cytometry) is reported as “little or no effect” and the “increase in cell density during 30 h treatment” value (T. brucei [4]; T. brucei seeded 1 × 10^5 cells/mL) is reported as 2.5 fold.
For `CON=C1CCc2c1ccc1c2c2c3c(ccc2n1CCN1CCOCC1)C(=NOC)CC3` [CBL0209], the GI50 (bloodstream T. brucei; [5]) was 460 ± 18 nM.
`CC(=O)c1cc2c3cc(C(C)=O)c(O)cc3n(CCNC(C)C)c2cc1O` [CBL0187] showed a GI50 (bloodstream T. brucei; [5]) of 33 ± 2.1 nM.
`CC(=O)c1ccc2c(c1)c1cc(C(C)=O)ccc1n2CCCNC(C)C` [CBL0127] gave a GI50 (bloodstream T. brucei; [5]) of 170 ± 3 nM.
In the case of `CCN(CC)CCn1c2ccccc2c2cnccc21` [CBL0139], the GI50 (bloodstream T. brucei; [7]) is reported as > 10000 nM.
`CC(C)NCCn1c2ccc3c(c2c2c4c(ccc21)C(=O)CC4)CCC3=O` [CBL0197] gave a GI50 (bloodstream T. brucei; [5]) of 0.95 ± 0.05 nM.
Work on `CC(=O)c1ccc2c(c1)c1c3c(ccc1n2CCNC(C)C)C(=O)CC3` [CBL0252] yielded a GI50 (bloodstream T. brucei; [5]) of 8.5 ± 0.22 nM.
Compound `O=C1CCc2c1ccc1c2c2c3c(ccc2n1CCN1CCOCC1)C(=O)CC3` [CBL0207] has a GI50 (bloodstream T. brucei; [5]) of 17 ± 0.2 nM.
Work on `CCN(CC)CCn1c2ccc(C#N)cc2c2cc(C#N)ccc21` [CBL0018] yielded a GI50 (bloodstream T. brucei; [5]) of 250 ± 20 nM.

Reference: publication PMC5000474, “Discovery of a Carbazole-Derived Lead Drug for Human African Trypanosomiasis” (Scientific Reports, 2016)
